Like-named read-outs stand apart in the source and are kept apart here.
Assays:
[1] = tested on: spores of bacillus subtilis; settings: alcohol at concentrations of about 20% (or higher); cited from earlier work
Bacterial spores = settings: cited from earlier work
[2] = tested on: Gram + and Gram − bacteria, fungi and yeasts; settings: cited from earlier work
Enterovirus = settings: cited from earlier work
[3] = cited from earlier work
[4] = cited from earlier work; remark: listed apart in the source
Poliovirus = settings: cited from earlier work
[5] = pH (10% w/w in deionized water) at 20° C.; format: physicochemical
Method: (§1) The above listed components were weighed separately, taking particular care with the concentrated sulfuric acid, which must be handled under a hood and with protection gloves. The components were mixed in the above listed sequence, making sure that the component being dealt with was perfectly mixed before adding the next one. After addition of the components, the mixture was stirred for 15 minutes, left to rest for 10 minutes and a sample was retrieved for checking its chemical and physical properties.
(§2) The following chemical-physical properties were measured: […]

[6] = Specific gravity of the solutions at 20° C.; format: physicochemical
Method: as §1, §2

Miscibility in water = format: physicochemical
Method: as §1, §2

[7] = properties of commercial hydrogen peroxide; cited from earlier work
[8] = properties of commercial hydrogen peroxide; cited from earlier work; remark: listed apart in the source
[9] = properties of commercial hydrogen peroxide; cited from earlier work; remark: listed apart in the source
[10] = properties of commercial hydrogen peroxide; cited from earlier work; remark: listed apart in the source

CC(C)O [Isopropyl alcohol]
effect with PAA as regards its germicidal activity [1]: synergistic effect

CC(=O)OO [PAA, peracetic acid]
Effect on medical and surgical instruments (Bacterial spores): Sterilization
Ppm (%) of PAA (Bacterial spores): 500-30,000 Ppm
Contact times (Bacterial spores; lower end of the 500-30,000 ppm range): 15 min
Contact times (Bacterial spores; upper end of the 500-30,000 ppm range): 0.25 min
Contact times ([2]; 100 ppm PAA): ≤ 5 min
Effect on medical and surgical instruments ([2]; 100 ppm PAA): Low-level disinfection
Contact times ([2]; in the presence of organic material, 200-500 ppm PAA): ≤ 5 min
Effect on medical and surgical instruments ([2]; in the presence of organic material): Low-level disinfection
Ppm (%) of PAA ([2]; inactivated and killed in the presence of organic material): 200-500 Ppm
Ppm (%) of PAA ([2]; microorganisms are inactivated and killed): 100 (0.01%) Ppm
Contact times (Enterovirus; 2000 ppm PAA): 10 to 30 min
Ppm (%) of PAA (Enterovirus): 2000 (0.2%) Ppm
solubility in water [3]: infinite
loss of active ingredient per month ([4]; 40% w/w solution, per month): 1 to 2%
Contact times (Poliovirus): 15 min
Ppm (%) of PAA (Poliovirus): 1500-2250 Ppm

OO [Hydrogen peroxide, 50% w/w, Hydrogen peroxide]
pH (10% w/w in deionized water) at 20° C. [5]: 2.00-3.00 U of pH
Specific gravity at 20° C. [6]: 1.280 g/mL
Miscibility in water (Miscibility in water): full

CCO [Ethyl alcohol]
effect with PAA as regards its germicidal activity [1]: synergistic effect

OO [hydrogen peroxide]
loss of active ingredient per year ([4]; hydrogen peroxide (30 to 90%), per year): less than 1%

OO [Hydrogen peroxide, 35% w/w, Hydrogen peroxide]
Miscibility in water [7]: full
Vapor pressure at 20° C. [8]: 17-20 mbar
Specific gravity at 20° C. [9]: 1.132 g/mL
pH (10% w/w in deionized water) at 20° C. [10]: 2.00-3.00 U of pH
